Experimental data: patent US8445005B2, “Antiwrinkle agent, lipolysis promoter, external composition for skin and food and beverage composition” (Kao Corporation, priority 2004, dated 2013)

Assays:
Mouse 3T3-L1 cells = assay: Lipolysis promoting effect: glycerol release from mature adipocytes; assay type: cell-based; settings: test concentration 0.10% by mass; 90 minutes; norepinephrine 3×10^−8 mol/L; control = 100
Description: Mouse 3T3-L1 cells purchased from Dainippon Pharmaceutical Co., Ltd. were cultured in a 24-well culture plate according to the method of […], et al. ([…]. et al., Biochim. Biophys. Acta., 1581: 36-48 (2002)) at 37° C. in a 5% (v/v) CO2 atmosphere, and these cells were used in the test as mature adipocytes. Test media were prepared by adding test samples at predetermined concentrations to DMEM medium containing bovine serum albumin and norepinephrine (final concentration: 3×10^-8 mol/L). The said mature adipocytes were cultured in the test media for 90 minutes to be reacted with the test samples. Following the reaction, the glycerol released into the media was quantified by […] using the F Kit Glycerol (Roche). The lipolysis promotion rate was calculated according to the equation below based on the quantified glycerol values to serve as an indicator of lipolysis promoting effect: Lipolysis promotion rate(%)=[A/B]×100 (wherein A represents the amount of glycerol with addition of test sample, and B represents the amount of glycerol of a control (without addition of test sample)). (Test Results) […] Zingerone and caffeine were used as comparative controls.

photoaged skin = assay: Wrinkle ameliorative effect: wrinkle score in photo-aged hairless mice; assay type: in vivo; settings: Results 1; 1.0% sample in 50% aqueous ethanol, 0.1 ml once a day, five times a week on dorsal skin; score 0-3; base only 2.65 ± 0.08; listed as Example 2
Description: Samples containing 1.0% each of the guinea ginger extract, paradol or acetylated guinea ginger extract obtained in Production Examples 1 to 3 were prepared, using a 50% aqueous ethanol solution for the base (Example 1, 2 or 3, respectively), and wrinkle ameliorative effects on photoaged skin were investigated using the test method described below. Hairless mice, 10 weeks old at the start of the test, were used in groups of 10 animals each. Photo-aging was induced by irradiating skin with UVA and UVB once a day, five times a week for eight weeks. The irradiated doses were 20, 25 and 30 J/cm^2 for UVA and 20, 30 and 40 mJ/cm^2 for UVB. The doses were elevated every week, and the skin was irradiated at the maximum doses after the third week. Wrinkle ameliorative effect was evaluated using a wrinkle score and a dermal collagen level. The wrinkle score was determined according to the method of Bissett, et al. (Photochem. Photobiol., 46: 367-378, 1987). Namely, the size and depth of wrinkles were comprehensively evaluated macroscopically, and evaluated according to one of four levels consisting of a score of 3 for “large, deep wrinkles able to be confirmed”, 2 for “wrinkles able to be confirmed”, 1 for “wrinkles unable to be confirmed” and 0 for “normal skin texture observed”. […] Wrinkle scores were then determined following completion of the final application. […]

Compound | Lipolysis promotion rate (%) (mean ± SE) (Mouse 3T3-L1 cells) | Wrinkle Score (mean ± SE) (photoaged skin)
Cn1c(=O)c2c(ncn2C)n(C)c1=O [Caffeine] | 234.93 ± 11.23 | –
CCCCCCCC(=O)CCc1ccc(O)c(OC)c1 [Paradol, 1-(4′-hydroxy-3′-methoxyphenyl)-3-decanone] | 554.68 ± 107.62 | 2.40 ± 0.23
COc1cc(CCC(C)=O)ccc1O [Zingerone] | 191.85 ± 69.83 | –
